Assay results published in ChEMBL document CHEMBL1127384, “Design, synthesis, and conformational analysis of a novel macrocyclic HIV-protease inhibitor” (J Med Chem, 1994).
pKi: −log10 of the molar value.

Biological target: Human immunodeficiency virus type 1 protease (Human immunodeficiency virus 1, UniProt Q72874)
Assay: In vitro ability to inhibit HIV-protease.

CC(C)[C@H](NC(=O)OCc1ccccc1)C(=O)N[C@@H](Cc1ccc(OCc2ccccc2)cc1)C(=O)C(F)(F)C(=O)NCc1ccccc1
pKi: 8.30

CC(C)[C@@H]1NC(=O)CNC(=O)COc2ccc(cc2)C[C@@H](C(=O)C(F)(F)C(=O)NCc2ccccc2)NC1=O
pKi: 7.70
